Structures are written as SMILES. Bounds are passed on as bounds.

In this experiment the test system is HeLa cells. The experiment in a line: Cell-based pharmacodynamic assay (CellTiter-Glo proliferation inhibition), HeLa. Particulars: human cervical cancer HeLa cells; 72 hours incubation; CellTiter-Glo luminescence; read-out: IC50 against HeLa cells. On the procedure:
Complete media such as RPMI 1640 (Gibco, A1049101), EMEM (ATCC, 30-2003), DMEM (Gibco, C11995500CP), McCoy's 5A (Gibco, 16600082), and F-12K (ATCC, 30-2004) were prepared by supplementing with varying concentrations of FBS (Biological Industries, 04-002-1A) and 1% Penicillin-Streptomycin (Gibco, 15140122) and was thoroughly mixed. Tumor cell lines including HeLa (ATCC, CCL-2; EMEM + 10% FBS), TOV-21G (Cobioer, CBP60292; 1:1 mixture of MCDB 105 and Medium 199 + 15% FBS), OVCAR-3 (ATCC, HTB-161; RPMI 1640 + 20% FBS + 0.01 mg/ml bovine insulin), SK-OV-3 (ATCC, HTB-77; McCoy's 5A + 10% FBS), A2780 (Cobioer, CBP60283; RPMI 1640 + 10% FBS), OC316 (Cobioer, CBP60620; RPMI 1640 + 10% FBS), HuH-7 (Cobioer, CBP60202; DMEM + 10% FBS), SNU-398 (ATCC, CRL-2233; RPMI 1640 + 10% FBS), NCI-H2286 (ATCC, CRL-5938; RPMI 1640 + 5% FBS), NCI-H82 (ATCC, HTB-175; RPMI 1640 + 10% FBS), A549 (ATCC, CCL-185; F-12K + 10% FBS), SK-MEL-3 (ATCC, HTB-69; McCoy's 5A + 15% FBS), PSN-1 (Cobioer, CBP61215; RPMI 1640 + 10% FBS), LoVo (ATCC, CCL-229; F-12K + 10% FBS), DLD-1 (ATCC, CCL-221; RPMI 1640 + 10% FBS), HCT-15 (ATCC, CCL-225; RPMI 1640 + 10% FBS), A498 (ATCC, HTB-44; EMEM + 10% FBS), LNCaP (ATCC, CRL-1740; RPMI 1640 + 10% FBS), SNU-1 (ATCC, CRL-5971; RPMI 1640 + 10% FBS), SCC-9 (Cobioer, CBP60428; DMEM/F12 (1:1) + 10% FBS + 0.5 mM sodium pyruvate + 400 ng/ml hydrocortisone), SU-DHL-5 (ATCC, CRL-2958; RPMI 1640 + 10% FBS), Toledo (ATCC, CRL-2631; RPMI 1640 + 10% FBS), and SJCRH30 (ATCC, CRL-2061; RPMI 1640 + 10% FBS) were thawed. Cells were passaged approximately twice, and those in good growth condition (typically passages 4-6) were selected for experiments. The medium was aspirated, and the cells were washed once with 0.25% trypsin (Invitrogen, 25200-072). The waste liquid was discarded, and 3 mL of fresh trypsin was added to the culture flask for digestion. When the cells began to detach, 9 mL of complete medium was added to neutralize the trypsin digestion, and the mixture was gently mixed. The cell suspension was transferred to a centrifuge tube using a pipette and centrifuged at 1000 rpm for 5 minutes. The supernatant was discarded, and 5 mL of medium was added to the centrifuge tube to gently resuspend the cells evenly. The cell concentration was adjusted to 1×10^4/mL-3×10^4/mL using a cell counter (Beckman Coulter, Vi-cellTM XR). The cell suspension was added to a 96-well plate (Corning, 3903) at 100 µL/well. The plate was labeled with details such as cell name, seeding density, and date, and then placed in a CO2 incubator (Thermo, Thermo 3111) overnight. Test compounds were prepared as 20 mM stock solutions in DMSO (Sigma, D4540-1L) and added to the corresponding cell wells using an HPD300 automated dispenser according to the designed layout. The plates were incubated in a 37°C, 5% CO2 incubator for 72 hours. CellTiter-Glo Buffer was thawed at room temperature. The lyophilized CellTiter-Glo substrate was equilibrated to room temperature. The CellTiter-Glo Buffer was added to the CellTiter-Glo substrate and thoroughly mixed. The cell plates were removed and equilibrated to room temperature, and 50 µL of the mixed CellTiter-Glo reagent was added to each well. The plates were protected from light and shaken for 10 minutes, followed by incubation for 10 minutes. The plates were placed in an Enspire reader (luminescence measurement time: 0.5 s) to record luminescence results. The inhibition rate was calculated using the following formula: Inhibition rate (%) = (1 - (RLU_compound - RLU_blank) / (RLU_DMSO - RLU_blank)) × 100%. Dose-response curves were plotted using XLFit to calculate IC50 values. A four-parameter model was used: [fit = (A + ((B - A) / (1 + ((C/x) ^ D)))]. The test results for HeLa cells are shown in Table 1. Table 1: IC50 values of some test compounds against human cervical cancer HeLa cells
A general note: ATP-based viability assays read luminescence as a measure of living cells.

The term IC50 denotes the concentration that gives 50% inhibition. As to `CCOC(=O)c1c(Cl)ccc2[nH]c3c(c12)CCCC3=O` [Compound B118], the IC50 is at most 200 nM. For the molecule `C#Cc1ccc(COC(=O)c2cccc3[nH]c4c(c23)CCCC4=O)s1` [Compound B120], the IC50 is at most 200 nM. To `[2H]C([2H])([2H])n1cc(-c2cccc3[nH]c4c(c23)CCCC4=O)cn1` [Compound B191] belongs at most 200 nM; to `CCOC(=O)c1cccc2c1c1c(n2C(=O)[C@@H](C)OCc2ccccc2)C(=O)CCC1` [Compound C58], at most 200 nM. Under `CCC#CC(C)OC(=O)c1cccc2[nH]c3c(c12)CCCC3=O` (racemic) [Compound B110] stands at most 200 nM; under `CCN=C1CCCc2c1[nH]c1cccc(C(=O)OC)c21` [Compound E48], at most 200 nM; under `O=C1CCCc2c1[nH]c1cccc(C(=O)OC(CF)CF)c21` [Compound B42], at most 200 nM.

As for `CCCCNC1CCc2c([nH]c3cccc(C(=O)OCC)c23)C1=O` (racemic) [Compound B103], the half-maximal inhibitory concentration (IC50) was at most 200 nM. Take `O=C1CCCc2c1[nH]c1cccc(-c3ccncc3)c21` [Compound B96]: the IC50 was at most 200 nM.

As for `O=C1CCCc2c1[nH]c1cccc(-c3cnn(CCO)c3)c21` [Compound B181], the IC50 is at most 200 nM. To `C[C@@H](O)COC(=O)c1cccc2[nH]c3c(c12)CCCC3=O` [Compound B147] belongs at most 200 nM; to `Cc1ccc2[nH]c3c(c2c1)CCCC3=NC1CCN(CC(F)(F)F)CC1` [Compound E42], at most 200 nM. On to `CCOC(=O)c1cccc2c1c1c(n2C(=O)c2ccccc2OC)C(=O)CCC1` [Compound C25], for which the IC50 was at most 200 nM. For the molecule `CCCCCC(=O)n1c2c(c3c(-c4cnn(C(C)C)c4)cccc31)CCCC2=O` [Compound C52], the concentration for half-maximal inhibition (IC50) was at most 200 nM. Consider `CC(C)n1ncc(-c2cccc3[nH]c4c(c23)CCCC4=O)n1` [Compound B124], for which the 50% inhibitory concentration (IC50) was at most 200 nM. As for `Cc1ccc2[nH]c3c(c2c1)CCCC3=NCC(O)CO` (racemic) [Compound E01], the IC50 was at most 500 nM. As for `O=C1CCCc2c1[nH]c1cccc(N3CC[C@H](CO)C3)c21` [Compound B196], the IC50 was at most 200 nM. Regarding `Cc1nnc(-c2cccc3[nH]c4c(c23)CCCC4=O)o1` [Compound B70], the half-maximal inhibitory concentration (IC50) is at most 200 nM. To `O=C1CCCc2c1[nH]c1cccc(C(=O)Oc3cccc4[nH]ncc34)c21` [Compound B166] belongs at most 500 nM. Take `O=C1CCCc2c1[nH]c1cccc(C(=O)O[C@@H](CO)c3ccccc3)c21` [Compound B189]: the concentration for half-maximal inhibition (IC50) was at most 500 nM. For `Cc1ccc2[nH]c3c(c2n1)CCCC3=NCCO` [Compound E50], the IC50 is at most 200 nM.

Regarding `COC(=O)c1ccc2[nH]c3c(c2c1)CCCC3=NCC(=O)OC(C)(C)C` [Compound E34], the IC50 was at most 200 nM. Under `COC(=O)c1cccc2[nH]c3c(c12)CCCC3=NCC(C)(C)O` [Compound E61] stands at most 200 nM; under `Cn1nc2ccccc2c1COC(=O)c1cccc2[nH]c3c(c12)CCCC3=O` [Compound B164], at most 200 nM; under `C#Cc1cccc(C(=O)n2c3c(c4c(C(=O)OCC)cccc42)CCCC3=O)c1` [Compound C22], at most 200 nM. For `COC(=O)c1cccc2c1c1c(n2C(C)=O)C(=O)CCC1` [Compound C01], the IC50 is at most 200 nM. With `Cc1ccc2[nH]c3c(c2c1)CCCC3=NCC1(C)NC(=O)NC1=O` (stereo not drawn) [Compound E07], the IC50 is at most 200 nM. For the molecule `O=C1CCCc2c1[nH]c1cccc(-c3cnc4[nH]ncc4c3)c21` [Compound B50], the IC50 is at most 200 nM. Regarding `NC(=O)COC(=O)c1cccc2[nH]c3c(c12)CCCC3=O` [Compound B148], the half-inhibitory concentration (IC50) is at most 200 nM. Consider `O=C1CCCc2c1[nH]c1cccc(CO)c21` [Compound B56], for which the IC50 is at most 200 nM.

`CCOC(=O)c1cccc2c1c1c(n2C(=O)/C=C/C(=O)OC)C(=O)CCC1` [Compound C15]: the IC50 was at most 200 nM.

As for `C=C=Cn1cc(-c2cccc3[nH]c4c(c23)CCCC4=O)cn1` [Compound B173], the IC50 was at most 200 nM. Consider `C[C@H](O)COC(=O)c1cccc2[nH]c3c(c12)CCCC3=O` [Compound B150], for which the IC50 is at most 200 nM.

Consider `CCOC(=O)c1cccc2c1c1c(n2C(=O)C2OC2C)C(=O)CCC1` (stereo not drawn) [Compound C30], for which the IC50 was at most 200 nM. For the molecule `Cc1ccc2[nH]c3c(c2c1)CCCC3=N[C@@H]1CCN(C)C1` [Compound E05R], the IC50 was at most 200 nM. As to `CCOC(=O)c1cccc2c1c1c(n2C(=O)C2CC3(CC(C(=O)O)C3)C2)C(=O)CCC1` (stereo not drawn) [Compound C56], the half-maximal inhibitory concentration (IC50) is at most 200 nM. Under `O=C1CCCc2c1[nH]c1cccc(C(=O)OC(CO)CO)c21` [Compound B149] stands at most 200 nM; under `O=C1CCCc2c1[nH]c1cccc(C(=O)Oc3cn[nH]c3)c21` [Compound B160], at most 200 nM. Turning to `CN=C1CCCc2c1[nH]c1cccc(C(=O)OC)c21` [Compound E72], the IC50 was at most 200 nM. In the case of `CCOC(=O)c1cccc2c1c1c(n2C(=O)CC2CCOCC2)C(=O)CCC1` [Compound C35], the IC50 was at most 200 nM. Consider `CCCCOC(=O)c1cccc2[nH]c3c(c12)CCCC3=O` [Compound B25], for which the IC50 was at most 200 nM.

As for `Cc1ccc2[nH]c3c(c2c1)CCCC3=NCCNC(=O)OC(C)(C)C` [Compound E67], the IC50 is at most 200 nM. Under `O=C1CCCc2c1[nH]c1cccc(C(=O)OCc3ccc(F)cc3)c21` [Compound B43] stands at most 500 nM.

For `CCOC(=O)c1cccc2c1c1c(n2C(=O)C2CCN(C)CC2)C(=O)CCC1` [Compound C24], the IC50 was at most 200 nM. For the molecule `Cc1ccc2[nH]c3c(c2c1)CCCC3=NCCNCCO` [Compound E11], the half-inhibitory concentration (IC50) was at most 200 nM. Turning to `O=C1CCCc2c1[nH]c1cccc(C(=O)OCC(F)(F)F)c21` [Compound B46], the IC50 is at most 200 nM. As for `CCOC(=O)c1cccc2c1c1c(n2C(=O)C2CCCCN2C)C(=O)CCC1` (racemic) [Compound C33], the IC50 is at most 200 nM.

In the case of `CCC(CO)N=C1CCCc2c1[nH]c1cccc(C(=O)OC)c21` (racemic) [Compound E58], the concentration for half-maximal inhibition (IC50) is at most 200 nM. Turning to `CCCCCN=C1CCCc2c1[nH]c1ccc(C)cc21` [Compound E57], the IC50 is at most 200 nM. Turning to `Cc1ccc2[nH]c3c(c2c1)CCCC3=NC1CCN(C)CC1` [Compound E13], the IC50 was at most 200 nM. `CCOC(=O)c1cccc2[nH]c3c(c12)SCCC3=O` [Compound B107]: the IC50 was at most 200 nM. Under `O=C1CCCc2c1[nH]c1cccc(C(=O)Oc3ccccc3)c21` [Compound B39] stands at most 500 nM; under `CS(C)(=O)=Nc1cccc2[nH]c3c(c12)CCCC3=O` [Compound B80], at most 500 nM.

As to `Cc1ccc2[nH]c3c(c2c1)CCCC3=N[C@@H]1CCNC1` [Compound E04R], the IC50 is at most 200 nM.

Source of the values: patent EP4711356A1, “TETRAHYDROCARBAZOLE DERIVATIVE, PHARMACEUTICAL COMPOSITION, AND USE THEREOF” (Nain Biotech (Hangzhou) Co., Ltd., priority 2023, dated 2024).
